{
  "source": "BindingDB's records for doi:10.1021/jm00018a011",
  "about": "(Pfizer, 1995)",
  "molecular_target": "Platelet-activating factor receptor (Oryctolagus cuniculus)",
  "assay": "Antagonistic activity was tested against Platelet-Activating Factor-induced aggregation of rabbit washed platelets.",
  "data": [
    {"molecule": "Cc1nc2cnccc2n1-c1ccc(I)cc1", "note": "[1-(4-Iodo-phenyl)-2-methyl-1H-imidazo[4,5-c]pyridine]", "values": [
      {"measurement": "IC50", "result": 67, "unit": "nM"}
    ]},
    {"molecule": "Cc1nc2cnccc2n1-c1ccc(-c2cc(=O)n3[nH]ccc3n2)cc1", "note": "[5-[4-(2-Methyl-imidazo[4,5-c]pyridin-1-yl)-phenyl]-4H-pyrazolo[1,5-a]pyrimidin-7-one]", "values": [
      {"measurement": "IC50", "result": 2800, "unit": "nM"}
    ]},
    {"molecule": "Cc1nc2cnccc2n1-c1ccc(C2=Nc3cc(Cl)c(Cl)cc3NC(=S)C2)cc1", "note": "[7,8-Dichloro-4-[4-(2-methyl-imidazo[4,5-c]pyridin-1-yl)-phenyl]-1,3-dihydro-benzo[b][1,4]diazepine-2-thione]", "values": [
      {"measurement": "IC50", "result": 0.5, "unit": "nM"}
    ]},
    {"molecule": "Cc1nc2cnccc2n1-c1ccc(-c2nnc(-c3ccccc3)o2)cc1", "note": "[2-Methyl-1-[4-(5-phenyl-[1,3,4]oxadiazol-2-yl)-phenyl]-1H-imidazo[4,5-c]pyridine]", "values": [
      {"measurement": "IC50", "result": 44, "unit": "nM"}
    ]},
    {"molecule": "Cc1cc2c(cc1C)N=C(c1ccc(-n3c(C)nc4cnccc43)cc1)CC(N)=N2", "note": "[7,8-Dimethyl-4-[4-(2-methyl-imidazo[4,5-c]pyridin-1-yl)-phenyl]-1,3-dihydro-benzo[b][1,4]diazepin-(2E)-ylideneamine]", "values": [
      {"measurement": "IC50", "result": 1.9, "unit": "nM"}
    ]},
    {"molecule": "Cc1cc2c(cc1C)NC(=O)CC(c1ccc(-n3c(C)nc4cnccc43)cc1)=N2", "note": "[7,8-Dimethyl-4-[4-(2-methyl-imidazo[4,5-c]pyridin-1-yl)-phenyl]-1,3-dihydro-benzo[b][1,4]diazepin-2-one]", "values": [
      {"measurement": "IC50", "result": 0.7, "unit": "nM"}
    ]},
    {"molecule": "Cc1cc2c(cc1C)NC(=S)CC(c1ccc(-n3c(C)nc4cnccc43)cc1)=N2", "note": "[7,8-Dimethyl-4-[4-(2-methyl-imidazo[4,5-c]pyridin-1-yl)-phenyl]-1,3-dihydro-benzo[b][1,4]diazepine-2-thione]", "values": [
      {"measurement": "IC50", "result": 0.6, "unit": "nM"}
    ]},
    {"molecule": "Cc1nc2cnccc2n1-c1ccccc1", "note": "[2-Methyl-1-phenyl-1H-imidazo[4,5-c]pyridine]", "values": [
      {"measurement": "IC50", "result": 840, "unit": "nM"}
    ]},
    {"molecule": "Cc1nc2cnccc2n1-c1ccc(C2CC(=O)N(C)c3cc(Cl)c(Cl)cc3C2)cc1", "note": "(centres undefined) [7,8-Dichloro-1-methyl-4-[4-(2-methyl-imidazo[4,5-c]pyridin-1-yl)-phenyl]-1,3,4,5-tetrahydro-benzo[b]azepin-2-one]", "values": [
      {"measurement": "IC50", "result": 0.5, "unit": "nM"}
    ]},
    {"molecule": "Cc1nc2cnccc2n1-c1ccc(C2=NC3CCCCC3NC(=O)C2)cc1", "note": "(centres undefined) [4-[4-(2-Methyl-imidazo[4,5-c]pyridin-1-yl)-phenyl]-1,5,5a,6,7,8,9,9a-octahydro-benzo[b][1,4]diazepin-2-one]", "values": [
      {"measurement": "IC50", "result": 200, "unit": "nM"}
    ]},
    {"molecule": "Cc1nc2cnccc2n1-c1ccc(C2CC(=O)Nc3cc(Cl)c(Cl)cc3C2)cc1", "note": "(centres undefined) [7,8-Dichloro-4-[4-(2-methyl-imidazo[4,5-c]pyridin-1-yl)-phenyl]-1,3,4,5-tetrahydro-benzo[b]azepin-2-one]", "values": [
      {"measurement": "IC50", "result": 0.5, "unit": "nM"}
    ]},
    {"molecule": "Cc1nc2cnccc2n1-c1ccc(C2=Nc3ccccc3N(C)C(=O)C2)cc1", "note": "[1-Methyl-4-[4-(2-methyl-imidazo[4,5-c]pyridin-1-yl)-phenyl]-1,3-dihydro-benzo[b][1,4]diazepin-2-one]", "values": [
      {"measurement": "IC50", "result": 4.9, "unit": "nM"}
    ]},
    {"molecule": "Cc1nc2cnccc2n1-c1ccc(C2=Nc3ccccc3C(=O)CC2)cc1", "note": "[2-[4-(2-Methyl-imidazo[4,5-c]pyridin-1-yl)-phenyl]-1,4-dihydro-benzo[b]azepin-5-one]", "values": [
      {"measurement": "IC50", "result": 15, "unit": "nM"}
    ]},
    {"molecule": "Cc1nc2cnccc2n1-c1ccc(C2=NCCNC(=O)C2)cc1", "note": "[7-[4-(2-Methyl-imidazo[4,5-c]pyridin-1-yl)-phenyl]-1,2,3,4-tetrahydro-[1,4]diazepin-5-one]", "values": [
      {"measurement": "IC50", "result": 2600, "unit": "nM"}
    ]}
  ]
}
